US20230211023A1, “REPORTER SYSTEM FOR RADIONUCLIDE IMAGING” (Erasmus University Medical Center Rotterdam, priority 2020, published 2023)

Legend:
[1] = target: LgBiT (Oplophorus gracilirostris, UniProt Q9GV45, A31E/A60N/A81I/D135N/F58L/F95D/G42A/G62A/G78A/G94A/G98A/H120P/I103V/I117V/I134L/K70R/L176M/L54V/L73R/L99Q/M102E/N171T/P142E/Q151K/Q38E/Q45L/V71I/Y165I); details: Dixon et al., 2016; read-out: Kd for binding to LgBiT / NLuc; cited from earlier work
[2] = test system: subcutaneously injected TMLgBiT expressing cells; test: SPECT imaging of mouse injected subcutaneously with TMLgBiT expressing cells; format: in vivo; details: 1 hour after injection of peptide, 20 MBq
[3] = test system: cells expressing the reporter gene TMLgBiT; test: Binding of radiolabelled peptide to live cells expressing TMLgBiT, gamma counter; format: cell-based; details: 1 nM peptide, 20,000 cells/well, washed three times
Protocol: The [^111In]-DOTA-6ahx-HiBiT peptide (1 nM) is added to cells expressing the reporter gene TMLgBiT and cells not expressing TMLgBiT are used as negative control (20,000 cells/well). Cells are washed three times and radioactivity measured at a gamma counter. A clear difference in radioactive signal (2000 fold) resulted between TMLgBiT expressing cells and cells non expressing the reporter gene. In FIG. 3, the radiation (in CPM, measured using a gamma counter) of cells expressing TMLgBiT and control cells after addition of […] of radioactive [^111In]-DOTA-6ahx-HiBiT peptide is provided.

[4] = test system: PC3-TMLgBiT tumors; test: BL and dynamic SPECT/CT imaging of mice bearing PC3-TMLgBiT tumors (FIG. 7); format: in vivo, mouse; details: dynamic SPECT scan 1 hour after injection of 0,13 nM
Protocol: For these experiments, eight-week-old nude BALB/C male mice (n=12) were injected with 5x10^6 PC-3-TM-LgBiT expressing cells (n=8). Cells were prepared for injections in PBS (Sigma-Aldrich) and matrigel (Corning) solution with a 50:50 ratio and a final injectable volume of 50 µL. Tumors were left to grow approximately 3-4 weeks post tumor cell implantation. To determine the functionality of the imaging system, a dynamic whole body SPECT/CT scan (VECT/CT Milabs) was performed. Mice were anesthetized using 1-2% isoflurane/O2 and the body temperature was maintained at 37° C. during the time of imaging (1 h) by using a heated bed aperture. The 1-hour dynamic SPECT/CT scan was performed immediately after tail vein injection of [^111In]-DOTA-6ahx-HiBiT for the PC-3 tumor model, (20 MBq labeled to 0.13 nmol in 200 µL PBS). […] Dynamic scans were obtained over a total duration of 1 h with 30 time frames, directly after injection of [^111In]-DOTA-6ahx-HiBiT. Acquired images were reconstructed using SR-OSEM with 9 iterations and 128 subsets on a 36 × 36 × 35 mm matrix with 0.80 × 0.80 mm isotropic voxels.

subcutaneously injected TMLgBiT expressing cells, sequence (as listed by the source): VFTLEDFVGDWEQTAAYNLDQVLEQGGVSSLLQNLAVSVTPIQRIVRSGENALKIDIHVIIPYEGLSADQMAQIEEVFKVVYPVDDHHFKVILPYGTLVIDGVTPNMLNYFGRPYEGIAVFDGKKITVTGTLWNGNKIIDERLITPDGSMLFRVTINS
LgBiT, sequence (Q9GV45 other isoform, or with tags, fused parts or gaps with the stated changes): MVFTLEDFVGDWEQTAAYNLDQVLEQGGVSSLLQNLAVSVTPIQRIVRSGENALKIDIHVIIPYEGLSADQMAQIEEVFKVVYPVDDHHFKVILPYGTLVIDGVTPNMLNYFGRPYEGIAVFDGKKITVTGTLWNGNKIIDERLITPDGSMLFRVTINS
cells expressing the reporter gene TMLgBiT, sequence (as listed by the source): as the sequence (as listed by the source) above
PC3-TMLgBiT tumors, sequence (as listed by the source): as above

Substance | Kd [1] [nM] | SPECT detection of TMLgBiT expressing cells in vivo [2] | SPECT detection of TMLgBiT expressing cells in vivo ([2]; listed as 111In -DOTA-6ax-HiBit) | SPECT detection of TMLgBiT expressing cells in vivo ([2]; listed as radiolabeled HiBiT peptide) | difference in radioactive signal between TMLgBiT expressing cells and cells not expressing the reporter gene [3] [fold] | SPECT signal from tumor [4]
NVSGWRLFKKISN [NLpep78] | 3.4 | – | – | – | – | –
NVTGYRLFKKISN [NLpep79] | 8.5 | – | – | – | – | –
[^111In]-DOTA-6ahx-HiBiT: DOTA-6ahx-HiBiT radiolabelled with indium-111 | – | can be specifically detected | could be detected in vivo | High specific signal is detected | 2000 | specific signal from tumor is visible
